Data published in patent US6649144B1, “Method for detecting and killing epithelial cancer cells” (Zila, Inc., priority 2001, dated 2003).

System: carcinoma cells
Test: Uptake and retention of mitochondrial marking agents in living carcinoma cells
Type: cell-based
Conditions: 5 minutes incubation at 37° C., rinsed twice with 1% acetic acid, 2-butanol extraction, spectrophotometry
Method: Different concentrations of the various cationic marking agents, at 100, 50, 10 and 1 μg/ml are prepared in RPMI medium complete with 20% fetal calf serum, 1 mM glutamine, hydrocortisone, insulin, transferrin, estradiol, selenium and growth hormone.
The carcinoma cells are incubated at 37° C. in tissue culture incubators with 5% CO2 and 95% relative humidity, for 5 minutes with each agent and concentration there and then rinsed twice using 2 minute incubations with 1% acetic acid. After incubation and rinsing, the cells are harvested, at 30 min., 1 hour, 2 hours, 4 hours and 8 hours. The cells are then extracted with 2-butanol and analyzed by spectrophotometry for quantitation of the marking agent.
The saturation concentration for toluidine blue O occurs at concentrations of 10 μg/ml and above. The saturation concentrations for the other marking agents are similarly determined. The remaining experiments are conducted with a concentration of 10 μg/ml for toluidine blue O and at the saturation concentrations for the other marking agents so-determined, unless stated otherwise.

How did the saturation concentration turn out when `Cc1cc2nc3ccc(N(C)C)cc3[s+]c2cc1N.[Cl-]` [toluidine blue O] was run?
The saturation concentration was no less than 10 µg/mL.
